Here are results for 28 molecules from patent publication US20240174662A1, “SMALL MOLECULE INHIBITORS OF SALT INDUCIBLE KINASES” (Janssen Biotech, Inc., priority 2021, published 2024).

In general, IC50 refers to the concentration that gives 50% inhibition.

The assay concerns the target SIK2 (Homo sapiens (Human), UniProt Q9H0K1). The experiment in a line: SIK2 Enzymatic Assay Version 2 (High ATP). Format: biochemical. The conditions noted are these: 3 mM ATP and 200 μM HDAC5tide final, ADP-Glo Max luminescence. As to the method:
All steps were performed at room temperature. Compounds were pre-plated onto an assay plate using an Echo acoustic dispenser (Labcyte, […] or […]) at 80 nL per well. Enzyme prepared in assay buffer at 6 nM (2× final concentration) was added at 4 μL per well using the Multidrop Combi (Thermo Fisher-used for all additions in this assay) to the assay plate, spun for 1 min at 1000 rpm (Allegra 6KR Beckman Coulter centrifuge), and incubated with compound for 30 minutes. […] ADP-Glo Max Reagent (prepared and aliquoted as per manufacturer instructions) was then added at 8 μL per well, spun and incubated for 2 hours. ADP-Glo Max Detection (prepared and aliquoted as per manufacturer instructions) was added at 8 μL per well to the assay plate, which was spun and incubated for 1 hour. The plate was then read on the Pherastar (BMG Labtech) using a luminescence read. Gain was set between 2200-2500.

SIK2, sequence (Q9H0K1 whole entry, species assumed): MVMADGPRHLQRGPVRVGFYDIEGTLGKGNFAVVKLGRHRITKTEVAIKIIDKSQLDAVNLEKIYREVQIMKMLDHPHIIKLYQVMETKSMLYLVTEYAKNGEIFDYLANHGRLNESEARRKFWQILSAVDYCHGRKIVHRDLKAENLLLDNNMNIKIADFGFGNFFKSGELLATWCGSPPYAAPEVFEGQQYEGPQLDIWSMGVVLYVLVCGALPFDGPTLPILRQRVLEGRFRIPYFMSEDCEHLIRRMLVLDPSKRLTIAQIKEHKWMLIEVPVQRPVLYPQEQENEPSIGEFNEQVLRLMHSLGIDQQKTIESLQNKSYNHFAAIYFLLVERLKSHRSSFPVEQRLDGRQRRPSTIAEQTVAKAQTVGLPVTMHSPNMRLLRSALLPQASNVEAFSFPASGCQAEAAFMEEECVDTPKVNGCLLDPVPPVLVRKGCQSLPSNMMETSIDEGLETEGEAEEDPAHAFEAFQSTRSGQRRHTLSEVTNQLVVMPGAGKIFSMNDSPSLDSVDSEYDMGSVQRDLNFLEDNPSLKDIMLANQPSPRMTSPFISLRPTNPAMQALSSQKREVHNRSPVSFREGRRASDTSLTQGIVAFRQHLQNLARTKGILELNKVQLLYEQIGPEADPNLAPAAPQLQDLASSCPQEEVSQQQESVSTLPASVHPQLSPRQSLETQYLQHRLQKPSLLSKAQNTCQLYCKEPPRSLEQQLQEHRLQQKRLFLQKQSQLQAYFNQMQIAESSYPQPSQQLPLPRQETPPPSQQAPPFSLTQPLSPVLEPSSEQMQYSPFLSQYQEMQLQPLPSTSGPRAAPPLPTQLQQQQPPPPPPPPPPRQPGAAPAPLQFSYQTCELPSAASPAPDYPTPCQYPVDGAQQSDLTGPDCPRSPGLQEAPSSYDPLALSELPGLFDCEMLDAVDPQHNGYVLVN

As to `CN1CC[C@@H]1COc1cnn(C)c1-c1ccn2nc(Nc3cnc(C(F)(F)F)cn3)cc2c1` [Example 150, 5-[2-methyl-4-[[(2R)-1-methylazetidin-2-yl]methoxy]pyrazol-3-yl]-N-[5-(trifluoromethyl)pyrazin-2-yl]pyrazolo[1,5-a]pyridin-2-amine], the IC50 stood at 7.6 nM. With `Cc1cc(Nc2cc3cc(-c4c(OC[C@H]5CCN5)cnn4C)ccn3n2)nc(C)n1` [Example 42, 5-[4-[[(2R)-azetidin-2-yl]methoxy]-2-methyl-pyrazol-3-yl]-N-(2,6-dimethylpyrimidin-4-yl)pyrazolo[1,5-a]pyridin-2-amine], the IC50 worked out at 14.6 nM.

As to `CCN1CC[C@@H]1COc1cnn(C)c1-c1ccn2nc(Nc3cc(C)c(=O)n(C)n3)cc2c1` [Example 178, 6-[[5-[4-[[(2R)-1-ethylazetidin-2-yl]methoxy]-2-methyl-pyrazol-3-yl]pyrazolo[1,5-a]pyridin-2-yl]amino]-2,4-dimethyl-pyridazin-3-one], the IC50 is less than 0.847 nM. To `Cn1ncc(OC[C@H]2C[C@@H](N)C2)c1-c1ccn2nc(NC(=O)C3CC3)cc2c1` [Example 400, N-[5-[4-[(3-aminocyclobutyl)methoxy]-2-methyl-pyrazol-3-yl]pyrazolo[1,5-a]pyridin-2-yl]cyclopropanecarboxamide] belongs 108 nM.

`Cc1cncc(Nc2cc3cc(-c4c(OC[C@H]5CCN5CCF)cnn4C)ccn3n2)n1` [Example 278, 5-[4-[[(2R)-1-(2-fluoroethyl)azetidin-2-yl]methoxy]-2-methyl-pyrazol-3-yl]-N-(6-methylpyrazin-2-yl)pyrazolo[1,5-a]pyridin-2-amine]: the IC50 was determined as 1 nM. To `Cc1onc(O[C@H]2CN[C@H]3CCCO[C@H]32)c1-c1ccn2nc(NC(=O)C3CC3)cc2c1` (single isomer, unassigned) [Example 228, N-(5-(5-methyl-3-(((3*S,3a*R,7a*S)-octahydropyrano[3,2-b]pyrrol-3-yl)oxy)isoxazol-4-yl)pyrazolo[1,5-a]pyridin-2-yl)cyclopropanecarboxamide] belongs 16.4 nM. To `Cc1cc(Nc2cc3cc(-c4c(OC[C@@H]5CCN5C)cnn4C)ccn3n2)nc(C2CC2)n1` [Example 134, N-(2-cyclopropyl-6-methyl-pyrimidin-4-yl)-5-[2-methyl-4-[[(2S)-1-methylazetidin-2-yl]methoxy]pyrazol-3-yl]pyrazolo[1,5-a]pyridin-2-amine] belongs 2.8 nM; to `Cc1cc(Nc2cc3cc(-c4c(OC[C@@H]5CCN5C)cnn4C)ccn3n2)nc(C)n1` [Example 139, N-(2,6-dimethylpyrimidin-4-yl)-5-[2-methyl-4-[[(2S)-1-methylazetidin-2-yl]methoxy]pyrazol-3-yl]pyrazolo[1,5-a]pyridin-2-amine], 19.7 nM. To `CCN1CC[C@@H]1COc1cnn(C)c1-c1ccn2nc(Nc3cnc(C)c(C)n3)cc2c1` [Example 22, (R)—N-(5,6-Dimethylpyrazin-2-yl)-5-(4-((1-ethylazetidin-2-yl)methoxy)-1-methyl-1H-pyrazol-5-yl)pyrazolo[1,5-a]pyridin-2-amine] belongs less than 0.847 nM; to `Cc1cc(Nc2cc3cc(-c4c(O[C@H]5C[C@H]6CC[C@@H]5O6)cnn4C)ccn3n2)nc(C)n1` (single isomer, unassigned) [Example 352, (1*S, 2*S, 4*R)—N-(2,6-dimethylpyrimidin-4-yl)-5-[2-methyl-4-(7-oxabicyclo[2.2.1]heptan-3-yloxy)pyrazol-3-yl]pyrazolo[1,5-a]pyridin-2-amine], 66.8 nM; to `CN1CC[C@@H]1COc1cnn(C)c1-c1ccn2nc(NC(=O)[C@@H]3C[C@@H]3F)cc2c1` [Example 69, (1S,2S)-2-fluoro-N-[5-[2-methyl-4-[[(2R)-1-methylazetidin-2-yl]methoxy]pyrazol-3-yl]pyrazolo[1,5-a]pyridin-2-yl]cyclopropanecarboxamide], 30.3 nM.

In the case of `Cc1cc(Nc2cc3cc(-c4c(OC[C@]5(O)CCOC5)cnn4C)ccn3n2)nc(C)n1` (single isomer, unassigned) [Example 439, (*S)-3-[[5-[2-[(2,6-dimethylpyrimidin-4-yl)amino]pyrazolo[1,5-a]pyridin-5-yl]-1-methyl-pyrazol-4-yl]oxymethyl]tetrahydrofuran-3-ol], it took 174 nM to reach half-maximal inhibition (IC50). Then `COc1nnc(Nc2cc3cc(-c4c(OC[C@H]5CCN5C)cnn4C)ccn3n2)cc1C` [Example 147, N-(6-methoxy-5-methyl-pyridazin-3-yl)-5-[2-methyl-4-[[(2R)-1-methylazetidin-2-yl]methoxy]pyrazol-3-yl]pyrazolo[1,5-a]pyridin-2-amine], with 0.9 nM; and `CN1CC[C@H](Oc2cnn(C)c2-c2ccn3nc(NC(=O)C4CC4)cc3c2)C1` [Example 105, N-[5-[2-methyl-4-[(3S)-1-methylpyrrolidin-3-yl]oxy-pyrazol-3-yl]pyrazolo[1,5-a]pyridin-2-yl]cyclopropanecarboxamide], with 43.1 nM. Consider `COc1nccc(Nc2cc3cc(-c4c(OC[C@H]5CCN5C)cnn4C)ccn3n2)n1` [Example 119, N-(2-methoxypyrimidin-4-yl)-5-[2-methyl-4-[[(2R)-1-methylazetidin-2-yl]methoxy]pyrazol-3-yl]pyrazolo[1,5-a]pyridin-2-amine], for which the IC50 turned out to be 1.6 nM. To `CN1CC[C@@H]1COc1cnn(C)c1-c1ccn2nc(Nc3ccc(C(=O)NCC(C)(C)O)cn3)cc2c1` [Example 106, N-(2-hydroxy-2-methyl-propyl)-6-[[5-[2-methyl-4-[[(2R)-1-methylazetidin-2-yl]methoxy]pyrazol-3-yl]pyrazolo[1,5-a]pyridin-2-yl]amino]pyridine-3-carboxamide] belongs 2.4 nM; to `Cn1ncc(OC[C@H]2CCN2CC2CC2)c1-c1ccn2nc(NC(=O)C3CC3)cc2c1` [Example 247, N-[5-[4-[[(2R)-1-(cyclopropylmethyl)azetidin-2-yl]methoxy]-2-methyl-pyrazol-3-yl]pyrazolo[1,5-a]pyridin-2-yl]cyclopropanecarboxamide], 2.7 nM. The molecule `Cc1onc(OC2CCN(C)CC2)c1-c1ccn2nc(NC(=O)C3CC3)cc2c1` [Example 493, N-[5-[5-methyl-3-[(1-methyl-4-piperidyl)oxy]isoxazol-4-yl]pyrazolo[1,5-a]pyridin-2-yl]cyclopropanecarboxamide] showed an IC50 of 236 nM. `Cc1onc(O[C@@H]2CN[C@H](C)C2)c1-c1ccn2nc(NC(=O)C3CC3)cc2c1` [Example 85, N-[5-[5-methyl-3-[(3S,5R)-5-methylpyrrolidin-3-yl]oxy-isoxazol-4-yl]pyrazolo[1,5-a]pyridin-2-yl]cyclopropanecarboxamide] came in with an IC50 of 32.1 nM.

`CCN1CC[C@@H]1COc1cnn(C)c1-c1ccn2nc(Nc3ccnc(C)n3)cc2c1` [Example 65, 5-[4-[[(2R)-1-ethylazetidin-2-yl]methoxy]-2-methyl-pyrazol-3-yl]-N-(2-methylpyrimidin-4-yl)pyrazolo[1,5-a]pyridin-2-amine]: the IC50 is less than 0.847 nM. `Cc1onc(O[C@H]2CNC[C@@H]2F)c1-c1ccn2nc(NC(=O)C3CC3)cc2c1` [Example 82, N-[5-[3-[(3S,4S)-4-fluoropyrrolidin-3-yl]oxy-5-methyl-isoxazol-4-yl]pyrazolo[1,5-a]pyridin-2-yl]cyclopropanecarboxamide] yielded an IC50 of 3950 nM. `C[C@@H]1CN(C)C[C@@H]1Oc1cnn(C)c1-c1ccn2nc(NC(=O)C3CC3)cc2c1` (single isomer, unassigned) [Example 418, (3*R,4*R)—N-[5-[4-(1,4-dimethylpyrrolidin-3-yl)oxy-2-methyl-pyrazol-3-yl]pyrazolo[1,5-a]pyridin-2-yl]cyclopropanecarboxamide] registered an IC50 of 102 nM.

Molecule `CCN1CC[C@@H]1COc1cnn(C)c1-c1ccn2nc(Nc3ccnc(C(F)(F)F)n3)cc2c1` [Example 161, 5-[4-[[(2R)-1-ethylazetidin-2-yl]methoxy]-2-methyl-pyrazol-3-yl]-N-[2-(trifluoromethyl)pyrimidin-4-yl]pyrazolo[1,5-a]pyridin-2-amine] registered an IC50 of less than 0.847 nM. `Cn1ncc(COC2(C(F)(F)F)CNC2)c1-c1ccn2nc(NC(=O)C3CC3)cc2c1` [Example 186, N-[5-[2-methyl-4-[[3-(trifluoromethyl)azetidin-3-yl]oxymethyl]pyrazol-3-yl]pyrazolo[1,5-a]pyridin-2-yl]cyclopropanecarboxamide] returned an IC50 of 7.3 nM. To `Cc1cc(Nc2cc3cc(-c4c(OC[C@H]5CCN5C[C@H](C)O)cnn4C)ccn3n2)nc(C)n1` [Example 292, (2S)-1-[(2R)-2-[[5-[2-[(2,6-dimethylpyrimidin-4-yl)amino]pyrazolo[1,5-a]pyridin-5-yl]-1-methyl-pyrazol-4-yl]oxymethyl]azetidin-1-yl]propan-2-ol] belongs less than 0.847 nM; to `Cc1cnc(Nc2cc3cc(-c4c(O[C@H]5CCN(C)C5)cnn4C)ccn3n2)cn1` [Example 454, 5-[2-methyl-4-[(3S)-1-methylpyrrolidin-3-yl]oxy-pyrazol-3-yl]-N-(5-methylpyrazin-2-yl)pyrazolo[1,5-a]pyridin-2-amine], 81.3 nM.

In turn, `Cn1ncc(OC[C@H]2C[C@H](N)C2)c1-c1ccn2nc(NC(=O)C3CC3)cc2c1` [Example 334, N-[5-[4-[(3-aminocyclobutyl)methoxy]-2-methyl-pyrazol-3-yl]pyrazolo[1,5-a]pyridin-2-yl]cyclopropanecarboxamide] registered an IC50 of 55.1 nM. To `CN1[C@@H]2COC[C@H]1C[C@@H](OCc1cnn(C)c1-c1ccn3nc(NC(=O)C4CC4)cc3c1)C2` [Example 185, N-[5-[2-methyl-4-[[(1S,5R)-9-methyl-3-oxa-9-azabicyclo[3.3.1]nonan-7-yl]oxymethyl]pyrazol-3-yl]pyrazolo[1,5-a]pyridin-2-yl]cyclopropanecarboxamide] belongs 18.3 nM.
